Results as given in patent publication US6166076A, “Taste enhancing food additives” (Board of Supervisors of Louisiana State University and …, priority 1997, dated 2000).
Entries after “also recorded” stand apart in the source; their conditions may differ.

Assays:
[1] = tested on: delayed rectifying K^+ channels; experiment: patch clamp, delayed rectifying K^+ channels of TRCs isolated from S5B/P1 rats; format: cell-based; settings: for sensitivity of S5B/P1 TRCs to inhibition compared with O-M TRCs: 10 μM, versus TRCs from O-M rats; for inhibition of the delayed rectifying K^+ channels, S5B/P1 rats: TRCs from S5B/P1 rats
Text: (§1) To determine if there is a link between the sensitivity of TRCs to PUFAs and dietary fat preferences, the PUFA-sensitivities of TRCs using patch clamp techniques were compared on TRCs isolated from Osborne-Mendel ("O-M") rats and S5B/P1 rats, strains with different dietary preferences. O-M rats prefer fat over carbohydrate, while S5B/P1 rats prefer carbohydrate over fat. […] Rats whose TRCs were more sensitive to the fatty acids have a preference for a lower-fat diet; while rats whose TRCs are less sensitive to fatty acids seek diets that are higher in fat.

[2] = tested on: delayed rectifying K^+ channels; experiment: patch clamp, delayed rectifying K^+ channels of TRCs isolated from Osborne-Mendel rats; format: cell-based
Text: as §1

[3] = tested on: delayed rectifier K^+ channel; experiment: whole-cell patch clamp, delayed rectifier K^+ channel (steady-state outward K^+ current at +40 mV) in rat fungiform taste receptor cells; format: cell-based, rat (Sprague-Dawley); settings: for effect on outward K^+ currents, specificity test: 10 μM, >10 min (maximal effect), significance by paired t test; for stimulation of taste receptor cells: summary statement
Text: (§2) The effects of free fatty acids ("FFAs") on taste buds isolated from rat fungiform papillae were examined to determine if a chemosensory (i.e. non-textural) cue for fats is located in the mouth. The methods used to isolate TRCs were generally as described in Behe et al., "Membrane Currents in Taste Cells of the Rat Fungiform Papilla: Evidence for Two Types of Ca Currents and Inhibition of K Currents by Saccharin," Journal of General Physiology, Vol. 96, pp. 1061-1084 (1990); Doolin et al., "Distribution and Characterization of Functional Amiloride-sensitive Sodium Channels in Rat Tongue," Journal of General Physiology, Vol. 107. pp. 545-554 (1996); and Gilbertson et al., "Proton Currents Through Amiloride-sensitive Na^+ Channels in Isolated Hamster Taste Cells: Enhancement by Vasopressin and cAMP," Neuron, Vol. 10, pp. 931-942 (1993).
(§3) Individual fungiform taste buds were isolated from the tongues of 2- to 5-month-old male Sprague-Dawley rats (Harlan Sprague Dawley, Indianapolis,Ind.). Animals were housed individually in polycarbonate cages with food (Purina #5001, Purina Mills, St. Louis, Mo.) provided ad lib. The room containing the rats was maintained at 21-23° C. on a 0700-1900 h light-dark cycle. All animal care and experimental procedures were in accordance with National Institutes of Health guidelines, and were approved by the Institutional Animal Care and Use Committee of the Pennington Biomedical Research Center.
(§4) Tongues were removed from euthanized rats, and were immediately placed in ice-cold Tyrode's solution. To remove the lingual epithelium containing the taste buds from the underlying muscle layer, approximately 1.0 ml of Tyrode's solution containing 0.3 mg/ml collagenase A (Boehringer Mannheim Corp., Indianapolis, Ind.), 2.5 mg/ml dispase (grade II; Boehringer Mannheim) and 1.0 mg/ml trypsin inhibitor (type I-S; Sigma Chemical Co., St. Louis, Mo.) was injected below the epithelium. The injected tongue was placed in Ca--Mg free Tyrode's solution and bubbled with O2 for 33-35 min. The lingual epithelium was removed and pinned serosal side up, allowing access to the taste buds. Fungiform taste buds were removed individually by gentle suction with a large, firepolished pipette (~200 μm diameter), and were plated onto Cell-Tak™-coated microscope slides (Collaborative Biomedical Prod., Bedford, Mass.) fitted with an O-ring which served as a recording chamber. Once plated, cells were perfused continually with Tyrode's or various test solutions. Taste buds isolated in this manner were used for up to 6 hours without any noticeable morphological or physiological decrement.
(§5) All chemicals were obtained from Sigma Chemical Corporation (St. Louis, Mo.) unless otherwise indicated. Normal extracellular solution (Tyrode's) contained (in mM): NaCl, 140; KCl, 5; CaCl2, 1; MgCl2, 1; HEPES (N-[2-hydroxyethyl] piperazine-N'-[2-ethanesulfonic acid), 10; glucose, 10; and sodium pyruvate, 10. The pH was adjusted to 7.40 with NaOH. In Ca^2+ --Mg^2+ free Tyrode's solution, 2 mM BAPTA (1,2-bis(2-aminophenoxy) ethane-N,N,N',N'-tetraacetic acid) (Molecular Probes, Eugene, Oreg.) replaced CaCl2 and MgCl2. Other components were identical to Tyrode's solution. Intracellular (pipette) solution contained (in mM): KCl, 140; CaCl2, 1 [free Ca^2+ was ~10^-8 M]; MgCl2, 2; HEPES, 10; EGTA (ethylene glycol-bis(β-aminoethylether)-N,N,N',N'-tetraacetic acid), 11; and ATP, 3. The pH was adjusted to 7.20 with KOH.
(§6) Free fatty acids (FFAs) were stored below -20° C. until the day of use, when they were dissolved in warm ethanol and diluted to final working concentrations in Tyrode's solution. Final ethanol concentrations in Tyrode's were below 0.1%; the ethanol had no effect on ionic currents in any TRCs. All FFAs were applied by bath perfusion. In some experiments, FFA-containing solutions were bubbled continuously with nitrogen to retard oxygenation. […]

[4] = tested on: inwardly rectifying K^+ channels (Kir); experiment: whole-cell patch clamp, inwardly rectifying K^+ channels (Kir) at -130 mV in rat fungiform taste receptor cells; format: cell-based, rat (Sprague-Dawley); settings: n=5 cells
Text: as §2, §3, §4, §5, §6

[5] = tested on: outward K^+ currents in rat fungiform taste receptor cells; experiment: whole-cell patch clamp, total outward voltage-activated currents in rat fungiform taste receptor cells; format: cell-based, rat (Sprague-Dawley)
Text: as §2
Individual fungiform taste buds were isolated from the tongues of 2- to 5-month-old male Sprague-Dawley rats (Harlan Sprague Dawley, Indianapolis,Ind.). Animals were housed individually in polycarbonate cages with food (Purina #5001, Purina Mills, St. Louis, Mo.) provided ad lib. The room containing the rats was maintained at 21-23° C. on a 0700-1900 h light-dark cycle. […]

[6] = tested on: rat fungiform taste receptor cells; experiment: current clamp, stimulus-induced depolarization of rat fungiform taste receptor cells; format: cell-based, rat (Sprague-Dawley)
Procedure: Voltage-activated currents were recorded from individual taste receptor cells maintained in the taste bud using the whole-cell patch clamp configuration, as generally described in Hamill et al., "Improved Patch-clamp Techniques for High-resolution Current Recording from Cells and Cell-free Membrane Patches," Pflugers Arch., Vol. 391, pp. 85-100 (1981). Patch pipettes were made by pulling mlcrohematocrit tubes (Scientific Products, McGaw Park, Ill.) on a Flaming/Brown micropipette puller (model P-97; Sutter Instrument Co., Novato, Calif.), and subsequently firepolishing on a microforge (model MF-9; Narishige, Tokyo) to a resistance between 5 and 10 M.OMEGA. when filled with intracellular solution.
Since arachidonic acid and linoleic acid inhibit K^+ currents in TRCs and these channels play crucial roles in repolarizing the cells following activity, the presence of such FFAs should affect how these cells respond during stimulus-induced activity. This prediction was tested in cells in current clamp mode during perfusion of saline, both in the absence and presence of 10 μM linoleic acid. In response to current injection (+18 pA), TRCs typically fired 0-3 action potentials, followed by a sustained depolarization lasting as long as the stimulus was present. […] On average, the sustained depolarization during current injection (18 pA) in the rat fungiform taste receptor cells was 22.4±8.5 mV during perfusion of physiological saline (n=7 cells). Addition of 10 μM linoleic acid to the perfusate of the same cells increased the mean voltage response to 36.8±9.2 mV (n=7), an increase of 64%.

Compound: linolenic acid
- sensitivity of S5B/P1 TRCs to inhibition compared with O-M TRCs [1]: significantly more sensitive to inhibition
- inhibition of the delayed rectifying K^+ channels, S5B/P1 rats [1]: inhibited the delayed rectifying K^+ channels in a concentration-dependent manner
- inhibition of the delayed rectifying K^+ channels, O-M rats [2]: inhibited the delayed rectifying K^+ channels in a concentration-dependent manner
- effect on outward K^+ currents, specificity test [3]: significantly reduced outward K^+ currents
- stimulation of taste receptor cells [3]: stimulate taste receptor cells

Compound: CC/C=C/C/C=C/C/C=C/CCCCCCCC(=O)O [linolenelaidic acid, reference compound]
- effect on outward K^+ currents, specificity test [3]: no effect on outward K^+ currents; also recorded: did not significantly affect outward K^+ currents

Compound: CCCCCCCC/C=C\CCCCCCCC(=O)O [oleic acid, reference compound]
- effect on outward K^+ currents, specificity test [3]: did not have significant effects
- enhancement of Kir [4]: did not enhance Kir

Compound: CC(C)(C(=O)c1cccnc1)c1cccnc1 [metyrapone]
- inhibition at 1000 µM ([5]; Rattus norvegicus, 1 mM, n=6 cells, read-out: inhibition of the outward current by metyrapone alone): 23.8 ± 9.7%

Compound: CCCCCCCC/C=C\CCCCCCCCCCCC(=O)O [erucic acid, reference compound]
- effect on outward K^+ currents, specificity test [3]: did not have significant effects

Compound: Nc1nc2c(ncn2[C@@H]2O[C@H](COP(=O)(O)OP(O)(O)=S)[C@@H](O)[C@H]2O)c(=O)[nH]1 [guanosine 5'-O-(2-thiodiphosphate), reference compound]
- effect of G protein inhibitor on FFA effects on outward currents ([3]; 0.5 mM in the patch pipette, n=5): did not inhibit the effects of FFA on outward currents

Compound: CCCCC/C=C\C/C=C\C/C=C\C/C=C\CCCC(=O)OC [arachidonic acid methyl ester]
- modulation of TRC K^+ currents by esterified fatty acid ([5]; arachidonic acid methyl ester: n=5 cells): ineffective

Compound: CCCCCCCC/C=C\CCCCCCCCCCCCCC(=O)O [nervonic acid, reference compound]
- effect on outward K^+ currents, specificity test [3]: did not have significant effects

Compound: CCCCC/C=C/C/C=C/CCCCCCCC(=O)O [linolelaidic acid, reference compound]
- effect on outward K^+ currents, specificity test [3]: did not significantly affect outward K^+ currents
- effect on outward K^+ currents, specificity test ([3]; listed as linolelaidic): no effect on outward K^+ currents

Compound: O=S(=O)(c1cccc2cnccc12)N1CCNCC1 [HA-100, reference compound]
- effect of PKC/PKA inhibitor on linoleic acid-induced inhibition of outward K^+ currents ([3]; 25 μM, intracellular, n=6 cells): did not prevent linoleic acid-induced inhibition of outward K^+ currents

Compound: CCCCCCCCCCCC(=O)O [lauric acid, reference compound]
- inhibition of the delayed rectifying K^+ channels, S5B/P1 rats [1]: ineffective
- inhibition of the delayed rectifying K^+ channels, O-M rats [2]: ineffective

Compound: CCCCCC/C=C\CCCCCCCC(=O)O [palmitoleic acid, reference compound]
- effect on outward K^+ currents, specificity test [3]: did not have significant effects

Compound: CCCCC/C=C\C/C=C\CCCCCCCC(=O)O [linoleic acid]
- sensitivity of S5B/P1 TRCs to inhibition compared with O-M TRCs [1]: significantly more sensitive to inhibition
- inhibition of the delayed rectifying K^+ channels, S5B/P1 rats [1]: inhibited the delayed rectifying K^+ channels in a concentration-dependent manner
- inhibition of the delayed rectifying K^+ channels, O-M rats [2]: inhibited the delayed rectifying K^+ channels in a concentration-dependent manner
- effect of intracellular application on outward K^+ currents ([3]; 10 μM in the pipette (intracellular) solution, up to 30 min or more): no effect
- effect on outward K^+ currents, specificity test [3]: significantly reduced outward K^+ currents
- effect on outward K^+ currents on subsequent extracellular addition ([3]; linoleic acid also in pipette, added extracellularly, n=11 cells): outward K^+ currents were inhibited
- inhibition of outward K^+ currents in metyrapone-treated TRCs ([3]; metyrapone 1 mM, 15 min, n=6 cells): still inhibited by linoleic acid in a quantitatively similar fashion
- stimulation of taste receptor cells [3]: stimulate taste receptor cells
- relative potency among the FFAs tested ([3]; trend in effects on both types of K^+ currents): the most potent of the FFAs tested
- effect on stimulus-induced depolarization (in words) ([6]; 10 μM linoleic acid): significantly enhanced stimulus-induced depolarization of TRCs; also recorded: increase in the magnitude of stimulus-induced depolarization of taste receptor cells; also recorded: prolonged "tail" potential following termination of the stimulus
- sustained depolarization during current injection (mean voltage response) ([6]; 10 μM linoleic acid, 18 pA, n=7 cells, saline 22.4±8.5 mV): 36.8±9.2 mV
- activation at 10 µM ([6]; Rattus norvegicus, 10 μM, 18 pA, n=7, read-out: increase of mean voltage response over saline): 64%
